Laboratory results taken from ChEMBL document CHEMBL1150313, “Novel bis-(arylsulfonamide) hydroxamate-based selective MMP inhibitors” (Bioorg Med Chem Lett, 2008).
The source made the active and inactive calls. The calls are words filed in the database; no cut-off is given here.

Key:
Stromelysin-2 [1] = target: T1, Stromelysin-2 (Homo sapiens, UniProt P09238); assay: Inhibition of human recombinant MMP10 at 10 uM
Target sequence in this assay (P09238 99-476 limits assumed): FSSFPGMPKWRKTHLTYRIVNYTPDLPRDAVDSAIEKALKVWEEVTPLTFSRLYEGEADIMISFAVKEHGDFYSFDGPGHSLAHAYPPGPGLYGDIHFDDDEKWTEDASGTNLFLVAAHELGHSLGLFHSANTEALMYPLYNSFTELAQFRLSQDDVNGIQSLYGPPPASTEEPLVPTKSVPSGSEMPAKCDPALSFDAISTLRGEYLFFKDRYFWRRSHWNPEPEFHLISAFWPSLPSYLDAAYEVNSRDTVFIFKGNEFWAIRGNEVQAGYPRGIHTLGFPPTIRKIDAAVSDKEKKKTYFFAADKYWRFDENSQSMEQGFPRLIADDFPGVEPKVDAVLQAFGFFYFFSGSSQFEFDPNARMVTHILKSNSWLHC

[2] = target: T2, Matrilysin (Homo sapiens) (UniProt P09237); assay: Inhibition of human recombinant MMP7 at 10 uM
T2 sequence (whole entry): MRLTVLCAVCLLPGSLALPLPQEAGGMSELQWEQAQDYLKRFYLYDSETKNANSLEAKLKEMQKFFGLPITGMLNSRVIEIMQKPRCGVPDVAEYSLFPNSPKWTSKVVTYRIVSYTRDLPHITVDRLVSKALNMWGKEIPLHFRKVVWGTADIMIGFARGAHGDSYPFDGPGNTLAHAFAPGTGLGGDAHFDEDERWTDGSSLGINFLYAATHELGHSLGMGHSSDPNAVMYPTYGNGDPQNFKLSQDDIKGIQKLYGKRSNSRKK

[3] = target: T3, Matrix metalloproteinase-9 (Homo sapiens, UniProt P14780); assay: Inhibition of human recombinant MMP9
Stromelysin-2 [4] = target: T1, Stromelysin-2; assay: Inhibition of human recombinant MMP10
Matrilysin = target: T4, Matrilysin (Homo sapiens, UniProt P09237); assay: (§1) Inhibition of human recombinant MMP7
T4 sequence (P09237 whole entry): T2 sequence (whole entry)

[5] = target: T2, Matrilysin (Homo sapiens); assay: as §1
[6] = target: T3, Matrix metalloproteinase-9; assay: Inhibition of human recombinant MMP9 at 10 uM

T3 sequence (P14780 whole entry): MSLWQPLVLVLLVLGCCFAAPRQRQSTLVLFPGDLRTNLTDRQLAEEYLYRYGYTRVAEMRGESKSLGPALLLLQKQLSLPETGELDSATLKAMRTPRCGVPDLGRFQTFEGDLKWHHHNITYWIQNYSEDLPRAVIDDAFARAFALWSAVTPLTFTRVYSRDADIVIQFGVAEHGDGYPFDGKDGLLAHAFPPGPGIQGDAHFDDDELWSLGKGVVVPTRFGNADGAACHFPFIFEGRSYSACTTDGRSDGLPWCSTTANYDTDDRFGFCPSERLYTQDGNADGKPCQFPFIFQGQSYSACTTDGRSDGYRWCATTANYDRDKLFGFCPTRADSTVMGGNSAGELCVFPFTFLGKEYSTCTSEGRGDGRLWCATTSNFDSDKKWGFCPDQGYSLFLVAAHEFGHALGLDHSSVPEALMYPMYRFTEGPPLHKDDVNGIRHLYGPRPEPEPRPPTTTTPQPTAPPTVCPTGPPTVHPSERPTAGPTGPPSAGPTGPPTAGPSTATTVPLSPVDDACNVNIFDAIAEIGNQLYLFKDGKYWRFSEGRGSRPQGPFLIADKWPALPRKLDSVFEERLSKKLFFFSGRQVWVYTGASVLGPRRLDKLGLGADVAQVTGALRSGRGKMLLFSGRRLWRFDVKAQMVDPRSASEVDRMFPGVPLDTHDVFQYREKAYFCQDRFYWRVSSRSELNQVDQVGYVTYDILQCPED

Compound | inhibition (Stromelysin-2 [1]) | Activity [3] | Ki (Matrilysin) | Ki (Stromelysin-2 [4]) | Ki [3] | other results
O=C(NO)[C@H](CCCCNS(=O)(=O)c1ccc(I)cc1)NS(=O)(=O)c1ccc(I)cc1 | 30.9% | inactive | – | – | – | inhibition [2]: 46%
O=C(NO)[C@H](CCCNS(=O)(=O)c1ccc(F)cc1)NS(=O)(=O)c1ccc(F)cc1 | 20% | inactive | – | – | – | inhibition [2]: 17%
O=C(NO)C(CNS(=O)(=O)c1ccccc1C(F)(F)F)NS(=O)(=O)c1ccccc1C(F)(F)F (configuration not stated) | – | inactive | 6 µM | – | – | Activity (Stromelysin-2 [4]): inactive
O=C(NO)C(CNS(=O)(=O)c1ccc([N+](=O)[O-])cc1)NS(=O)(=O)c1ccc([N+](=O)[O-])cc1 (configuration not stated) | – | – | 6.6 µM | 22 µM | 1.7 µM | –
COc1ccc(S(=O)(=O)NCCC[C@H](NS(=O)(=O)c2ccc(OC)cc2)C(=O)NO)cc1 | – | – | – | – | 4.2 µM | Activity (Stromelysin-2 [4]): 16 µM; Activity [5]: inactive
COc1ccc(S(=O)(=O)NCC(NS(=O)(=O)c2ccc(OC)cc2)C(=O)NO)cc1 (configuration not stated) | – | – | 0.605 µM | 0.335 µM | 0.039 µM | –
O=C(NO)[C@H](CCCNS(=O)(=O)c1ccc(Cl)cc1)NS(=O)(=O)c1ccc(Cl)cc1 | 34.5% | inactive | – | – | – | inhibition [2]: 31%
O=C(NO)[C@H](CCCNS(=O)(=O)c1ccccc1)NS(=O)(=O)c1ccccc1 | – | inactive | 3 µM | – | – | Activity (Stromelysin-2 [4]): inactive
O=C(NO)C(CNS(=O)(=O)c1ccc(Cl)cc1)NS(=O)(=O)c1ccc(Cl)cc1 (configuration not stated) | – | – | 0.237 µM | – | 0.23 µM | –
COc1ccc(S(=O)(=O)NCC(NS(=O)(=O)c2ccc(OC)cc2OC)C(=O)NO)c(OC)c1 (configuration not stated) | – | – | 0.289 µM | 372 µM | 124 µM | –
O=C(NO)[C@H](CCCNS(=O)(=O)c1ccc(I)cc1)NS(=O)(=O)c1ccc(I)cc1 | – | – | 5 µM | – | 221 µM | Activity (Stromelysin-2 [4]): inactive
O=C(NO)C(CNS(=O)(=O)c1ccc(F)cc1)NS(=O)(=O)c1ccc(F)cc1 (configuration not stated) | – | – | 0.625 µM | 4.57 µM | 2.75 µM | –
O=C(NO)[C@H](CCCCNS(=O)(=O)c1ccc(Br)cc1)NS(=O)(=O)c1ccc(Br)cc1 | 34.5% | inactive | 2.2 µM | – | – | –
O=C(NO)[C@H](CCCNS(=O)(=O)c1ccc(C(F)(F)F)cc1)NS(=O)(=O)c1ccc(C(F)(F)F)cc1 | – | – | 7 µM | 337 µM | 329 µM | –
O=C(NO)C(CNS(=O)(=O)c1ccc(I)cc1)NS(=O)(=O)c1ccc(I)cc1 (configuration not stated) | – | – | 1.8 µM | 1.6 µM | 0.0026 µM | –
O=C(NO)[C@H](CCCCNS(=O)(=O)c1ccccc1)NS(=O)(=O)c1ccccc1 | 34.5% | – | – | – | – | inhibition [6]: 7.5%; inhibition [2]: 44%
O=C(NO)C(CNS(=O)(=O)c1cccc(C(F)(F)F)c1)NS(=O)(=O)c1cccc(C(F)(F)F)c1 (configuration not stated) | – | inactive | 0.602 µM | – | – | Activity (Stromelysin-2 [4]): inactive
CN(C)c1cccc2c(S(=O)(=O)NCC(NS(=O)(=O)c3cccc4c(N(C)C)cccc34)C(=O)NO)cccc12 (configuration not stated) | – | – | 4.8 µM | – | 150 µM | –
O=C(NO)C(CNS(=O)(=O)c1ccc(Br)cc1)NS(=O)(=O)c1ccc(Br)cc1 (configuration not stated) | – | – | 5.5 µM | – | 0.15 µM | –
O=C(NO)[C@H](CCCCNS(=O)(=O)c1ccc(F)cc1)NS(=O)(=O)c1ccc(F)cc1 | 27.4% | inactive | 3.1 µM | – | – | –
O=C(NO)[C@H](CCCNS(=O)(=O)c1ccc(Br)cc1)NS(=O)(=O)c1ccc(Br)cc1 | 16.4% | – | – | – | – | inhibition [6]: 9.3%; inhibition [2]: 32%
O=C(NO)C(CNS(=O)(=O)c1ccccc1)NS(=O)(=O)c1ccccc1 (configuration not stated) | – | – | 2.8 µM | 0.356 µM | 0.227 µM | –
O=C(NO)[C@H](CCCCNS(=O)(=O)c1ccc(C(F)(F)F)cc1)NS(=O)(=O)c1ccc(C(F)(F)F)cc1 | 1.8% | inactive | – | – | – | inhibition [2]: 24%
O=C(NO)C(CNS(=O)(=O)c1c(F)c(F)c(F)c(F)c1F)NS(=O)(=O)c1c(F)c(F)c(F)c(F)c1F (configuration not stated) | – | – | 8.6 µM | – | 212 µM | Activity (Stromelysin-2 [4]): inactive
O=C(NO)C(CNS(=O)(=O)c1ccc(C(F)(F)F)cc1)NS(=O)(=O)c1ccc(C(F)(F)F)cc1 (configuration not stated) | – | – | 10 µM | 23 µM | 7.9 µM | –
